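Step 1: Grow cells in 96-well plates. Step 2: Expose to compound for 48 hours at 5 concentrations. Step 3: Interpolate endpoints linearly; if unreached, use highest concentration. GI50 is the concentration that inhibits growth by half. TGI denotes the concentration required for complete inhibition of growth.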
Key:
Experiment in all cases: DTP human tumour cell line panel, 48 h
[1] = system: MDA-MB-231 breast
[2] = system: HCT-15 colon
[3] = system: SW-620 colon
[4] = system: CAKI-1 renal
[5] = system: HS 578T breast
[6] = system: COLO 205 colon
[7] = system: OVCAR-3 ovarian
[8] = system: NCI-H460 lung
[9] = system: A549 NSCLC
[10] = system: SK-MEL-5 melanoma

| Compound | GI50 [1] [µM] | TGI [1] [µM] | GI50 [2] [µM] | TGI [2] [µM] | GI50 [3] [µM] | TGI [3] [µM] | GI50 [4] [µM] | TGI [4] [µM] | GI50 [5] [µM] | TGI [5] [µM] | GI50 [6] [µM] | TGI [6] [µM] | GI50 [7] [µM] | TGI [7] [µM] | GI50 [8] [µM] | TGI [8] [µM] | GI50 [9] [µM] | TGI [9] [µM] | GI50 [10] [µM] | TGI [10] [µM] |
| --- | --- | --- | --- | --- | --- | --- | --- | --- | --- | --- | --- | --- | --- | --- | --- | --- | --- | --- | --- | --- |
| COc1cc(/C=C/C(=O)c2cc(OC)c(OC)c(OC)c2)cc(OC)c1OC | 6.89 | > 100 | 3.41 | 62.9 | 2.18 | 5.67 | 1.23 | 3.87 | 2.76 | 59.1 | 9.09 | 25.8 | 1.91 | 4.21 | 1.89 | 4.07 | 3.74 | 46.1 | 8.33 | 21.1 |
| CC(C)(CCC(C)(C)c1ccccc1)c1ccccc1 |  | 31.5 |  | 45.7 |  | 35.2 |  | 48.2 |  | 53.4 |  | 33.5 |  | 31 |  | 31.9 |  | > 100 |  | 28.5 |
| Oc1ccc(SCc2ccc(NCc3ccccc3)cc2)cc1 |  | > 100 |  | > 100 |  | > 100 |  | > 100 |  | > 100 |  | > 100 |  | > 100 |  | > 100 |  | 56.7 |  | 47.3 |
| Nc1c(O)c(S(=O)(=O)O)c(O)c2c1C(=O)c1ccccc1C2=O | 5.85 | 28.1 | 2.64 | 11.2 | 3.24 | > 100 | 2.34 | 7.26 | 4.69 | > 100 | 1.61 | 3.01 | 2.94 | 14.5 | 2.86 | 22 | 2.9 | 12 | 1.97 | 4.07 |
| CCc1nc(N)nc(N)c1-c1ccc(Cl)c(N=NN(C)C)c1 |  | > 100 |  | > 100 |  | > 100 |  | > 96.9 |  | > 100 |  | 50.7 |  | > 91.5 |  | 40.5 |  | 99.5 |  | 50.2 |
| CC12CCC(O)CC1CCC1C2CCC2(C)C(C3=CC(=O)OC3)CCC12 (stereo not given) | 0.636 | 8.49 | > 100 | > 100 | > 100 | > 100 | > 55.7 | > 100 | 3.48 | > 48.5 | > 100 | > 100 | > 86.6 | > 100 | 0.493 | > 100 | 21.8 | > 100 | > 100 | > 100 |
| COc1ccc2c(c1)C(=O)c1c-2n(CCCCl)c(=O)c2cc(N(C)C)ccc12 | 21.8 | 81 | > 100 | > 100 | > 100 | > 100 | 94.6 | > 100 | 26.8 | > 100 | > 100 | > 100 | > 100 | > 100 | 73 | > 100 | > 100 | > 100 | 11.2 | 34.6 |
| C#CC#CC#CC#CC#CC#CC#CC#CCC1OC[C@H](COC(=O)O[C@@H](C(=O)O[C@H]2C[C@@]3(O)[C@@H](OC(=O)c4ccccc4)[C@@H]4[C@]5(OC(C)=O)CO[C@@H]5C[C@H](O)[C@@]4(C)C(=O)[C@H](OC(C)=O)C(=C2C)C3(C)C)[C@@H](NC(=O)c2ccccc2)c2ccccc2)O1 (stereo not given in full) | 1.27 | > 33.3 | 11.7 | > 33.3 | 0.261 | > 33.3 | 1.4 | > 33.3 | 0.297 | > 17.3 | 0.202 | > 33.3 | 0.17 | > 33.3 | 0.123 | > 33.3 | 0.295 | > 33.3 | 1.47 | > 33.3 |
| CS(=O)(=O)CS(=O)CS(=O)CS(=O)CC(NC(=O)CCC(N)C(=O)O)C(=O)O (stereo not given) |  | > 100 |  | > 100 |  | > 100 |  | > 100 |  | > 100 |  | > 100 |  | > 100 |  | > 100 |  | > 100 |  | > 100 |

Reference: PubChem BioAssay (NCI)
